# Experimental data published in the supplement of paper PMC10307832.
# Key:
# Assay in all cases: relative viability (nuclei count vs DMSO), 5 days (fraction); higher = more cells survive
# [1] = compound: O=C(O)c1ccc2c(c1)nc(Nc1cccc(Cl)c1)c1ccncc12 [Silmitasertib] + CC(=O)c1c(C)c2cnc(Nc3ccc(N4CCNCC4)cn3)nc2n(C2CCCC2)c1=O [Palbociclib] (partner 0.5 µM)
# In short: (§1)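 Each reported value is a median over duplicate plates. It expresses relative viability: treated-well nuclei count divided by vehicle-well nuclei count. Lung cancer cell lines in 1536-well plates were dosed by pin tool a day after seeding, alone with one drug or with a fixed anchor-drug dose plus five library-drug doses (not always all listed) in √10 steps, and nuclei were counted after 5 days.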
# [2] = compound: O=C(O)c1ccc2c(c1)nc(Nc1cccc(Cl)c1)c1ccncc12 [Silmitasertib] + Nc1nc2[nH]cc(CCc3ccc(C(=O)N[C@@H](CCC(=O)O)C(=O)O)cc3)c2c(=O)[nH]1 [Pemetrexed] (partner 0.2 µM)
# In short: as §1
# [3] = compound: O=C(O)c1ccc2c(c1)nc(Nc1cccc(Cl)c1)c1ccncc12 [Silmitasertib] + CC(C)C[C@H](NC(=O)[C@H](Cc1ccccc1)NC(=O)c1cnccn1)B(O)O [Bortezomib] (partner 0.002 µM)
# In short: as §1
# [4] = compound: O=C(O)c1ccc2c(c1)nc(Nc1cccc(Cl)c1)c1ccncc12 [Silmitasertib] + CS(=O)(=O)CCNCc1ccc(-c2ccc3ncnc(Nc4ccc(OCc5cccc(F)c5)c(Cl)c4)c3c2)o1 [Lapatinib] (partner 2 µM)
# In short: as §1
# [5] = compound: O=C(O)c1ccc2c(c1)nc(Nc1cccc(Cl)c1)c1ccncc12 [Silmitasertib] + CS(=O)(=O)N1CCN(Cc2cc3nc(-c4cccc5[nH]ncc45)nc(N4CCOCC4)c3s2)CC1 [Pictilisib] (partner 1 µM)
# In short: as §1
cell line,measurement,setting,value
LXF-289,relative viability,[1]; first compound 0.04 µM,0.606
same,relative viability,[1]; first compound 1.265 µM,0.657
same,relative viability,[1]; first compound 4 µM,0.66
same,relative viability,[2]; first compound 0.04 µM,0.968
same,relative viability,[2]; first compound 1.265 µM,0.8
same,relative viability,[2]; first compound 4 µM,0.824
same,relative viability,[3]; first compound 0.04 µM,1.02
same,relative viability,[3]; first compound 1.265 µM,1.05
same,relative viability,[3]; first compound 4 µM,0.979
same,relative viability,[4]; first compound 0.04 µM,0.931
same,relative viability,[4]; first compound 1.265 µM,0.999
same,relative viability,[4]; first compound 4 µM,1
same,relative viability,[5]; first compound 0.04 µM,0.808
same,relative viability,[5]; first compound 1.265 µM,0.772
same,relative viability,[5]; first compound 4 µM,0.79
NCI-H23,relative viability,[1]; first compound 0.04 µM,0.467
same,relative viability,[1]; first compound 0.4 µM,0.444
same,relative viability,[1]; first compound 1.265 µM,0.423
same,relative viability,[1]; first compound 4 µM,0.393
same,relative viability,[2]; first compound 0.04 µM,0.779
same,relative viability,[2]; first compound 0.4 µM,0.389
same,relative viability,[2]; first compound 1.265 µM,0.57
same,relative viability,[2]; first compound 4 µM,0.303
same,relative viability,[3]; first compound 0.04 µM,1.01
same,relative viability,[3]; first compound 1.265 µM,0.782
same,relative viability,[3]; first compound 4 µM,0.706
same,relative viability,[4]; first compound 0.04 µM,1.45
same,relative viability,[4]; first compound 1.265 µM,0.73
same,relative viability,[4]; first compound 4 µM,0.355
same,relative viability,[5]; first compound 0.04 µM,0.54
same,relative viability,[5]; first compound 1.265 µM,0.38
same,relative viability,[5]; first compound 4 µM,0.26
NCI-H322M,relative viability,[1]; first compound 0.04 µM,0.411
same,relative viability,[1]; first compound 0.4 µM,0.486
same,relative viability,[1]; first compound 1.265 µM,0.422
same,relative viability,[1]; first compound 4 µM,0.351
same,relative viability,[2]; first compound 0.04 µM,0.666
same,relative viability,[2]; first compound 0.4 µM,0.536
same,relative viability,[2]; first compound 1.265 µM,0.595
same,relative viability,[2]; first compound 4 µM,0.482
same,relative viability,[3]; first compound 0.04 µM,1.25
same,relative viability,[3]; first compound 0.4 µM,0.881
same,relative viability,[3]; first compound 1.265 µM,0.947
same,relative viability,[3]; first compound 4 µM,0.804
same,relative viability,[4]; first compound 0.04 µM,0.668
same,relative viability,[4]; first compound 0.4 µM,0.549
same,relative viability,[4]; first compound 1.265 µM,0.42
same,relative viability,[4]; first compound 4 µM,0.387
same,relative viability,[5]; first compound 0.04 µM,0.503
same,relative viability,[5]; first compound 0.4 µM,0.503
same,relative viability,[5]; first compound 1.265 µM,0.381
same,relative viability,[5]; first compound 4 µM,0.365
NCI-H460,relative viability,[1]; first compound 0.04 µM,0.203
same,relative viability,[1]; first compound 0.4 µM,0.25
same,relative viability,[1]; first compound 1.265 µM,0.189
same,relative viability,[1]; first compound 4 µM,0.075
same,relative viability,[2]; first compound 0.04 µM,0.0675
same,relative viability,[2]; first compound 0.4 µM,0.0541
same,relative viability,[2]; first compound 1.265 µM,0.0651
same,relative viability,[2]; first compound 4 µM,0.0575
same,relative viability,[3]; first compound 0.04 µM,1.22
same,relative viability,[3]; first compound 0.4 µM,0.967
same,relative viability,[3]; first compound 1.265 µM,1.09
same,relative viability,[3]; first compound 4 µM,1.15
same,relative viability,[4]; first compound 0.04 µM,1.21
same,relative viability,[4]; first compound 0.4 µM,0.997
same,relative viability,[4]; first compound 1.265 µM,1.02
same,relative viability,[4]; first compound 4 µM,0.305
same,relative viability,[5]; first compound 0.04 µM,0.424
same,relative viability,[5]; first compound 0.4 µM,0.412
same,relative viability,[5]; first compound 1.265 µM,0.314
same,relative viability,[5]; first compound 4 µM,0.3
NCI-H520,relative viability,[1]; first compound 0.04 µM,0.269
same,relative viability,[1]; first compound 0.4 µM,0.238
same,relative viability,[1]; first compound 1.265 µM,0.172
same,relative viability,[1]; first compound 4 µM,0.245
same,relative viability,[2]; first compound 0.04 µM,0.716
same,relative viability,[2]; first compound 0.4 µM,0.716
same,relative viability,[2]; first compound 1.265 µM,0.694
same,relative viability,[2]; first compound 4 µM,0.566
same,relative viability,[3]; first compound 0.04 µM,0.622
same,relative viability,[3]; first compound 0.4 µM,0.515
same,relative viability,[3]; first compound 1.265 µM,0.389
same,relative viability,[3]; first compound 4 µM,0.422
same,relative viability,[4]; first compound 0.04 µM,0.93
same,relative viability,[4]; first compound 0.4 µM,0.902
same,relative viability,[4]; first compound 1.265 µM,0.773
same,relative viability,[4]; first compound 4 µM,0.438
same,relative viability,[5]; first compound 0.04 µM,0.263
same,relative viability,[5]; first compound 0.4 µM,0.298
same,relative viability,[5]; first compound 1.265 µM,0.258
same,relative viability,[5]; first compound 4 µM,0.224
NCI-H647,relative viability,[1]; first compound 0.04 µM,0.505
same,relative viability,[1]; first compound 0.4 µM,0.376
same,relative viability,[1]; first compound 1.265 µM,0.33
same,relative viability,[1]; first compound 4 µM,0.282
same,relative viability,[2]; first compound 0.04 µM,0.183
same,relative viability,[2]; first compound 0.4 µM,0.16
same,relative viability,[2]; first compound 1.265 µM,0.148
same,relative viability,[2]; first compound 4 µM,0.134
same,relative viability,[3]; first compound 0.04 µM,1.12
same,relative viability,[3]; first compound 0.4 µM,0.866
same,relative viability,[3]; first compound 1.265 µM,0.705
same,relative viability,[3]; first compound 4 µM,0.343
same,relative viability,[4]; first compound 0.04 µM,1.37
same,relative viability,[4]; first compound 0.4 µM,0.801
same,relative viability,[4]; first compound 1.265 µM,0.716
same,relative viability,[4]; first compound 4 µM,0.328
same,relative viability,[5]; first compound 0.04 µM,0.546
same,relative viability,[5]; first compound 0.4 µM,0.462
same,relative viability,[5]; first compound 1.265 µM,0.33
same,relative viability,[5]; first compound 4 µM,0.153
NCI-H650,relative viability,[1]; first compound 0.04 µM,0.319
same,relative viability,[1]; first compound 0.4 µM,0.236
same,relative viability,[1]; first compound 1.265 µM,0.266
same,relative viability,[1]; first compound 4 µM,0.259
same,relative viability,[2]; first compound 0.04 µM,0.981
same,relative viability,[2]; first compound 0.4 µM,0.433
same,relative viability,[2]; first compound 1.265 µM,0.912
same,relative viability,[2]; first compound 4 µM,0.659
same,relative viability,[3]; first compound 0.04 µM,0.996
same,relative viability,[3]; first compound 0.4 µM,0.515
same,relative viability,[3]; first compound 1.265 µM,0.614
same,relative viability,[3]; first compound 4 µM,0.345
same,relative viability,[4]; first compound 0.04 µM,1.13
same,relative viability,[4]; first compound 0.4 µM,0.722
same,relative viability,[4]; first compound 1.265 µM,0.525
same,relative viability,[4]; first compound 4 µM,0.272
same,relative viability,[5]; first compound 0.04 µM,1.08
same,relative viability,[5]; first compound 0.4 µM,0.817
same,relative viability,[5]; first compound 1.265 µM,0.614
same,relative viability,[5]; first compound 4 µM,0.75
NCI-H661,relative viability,[1]; first compound 0.04 µM,0.421
same,relative viability,[1]; first compound 0.4 µM,0.511
same,relative viability,[1]; first compound 1.265 µM,0.407
same,relative viability,[1]; first compound 4 µM,0.359
same,relative viability,[2]; first compound 0.04 µM,0.93
same,relative viability,[2]; first compound 0.4 µM,0.966
same,relative viability,[2]; first compound 1.265 µM,0.865
same,relative viability,[2]; first compound 4 µM,0.666
same,relative viability,[3]; first compound 0.04 µM,0.852
same,relative viability,[3]; first compound 1.265 µM,0.734
same,relative viability,[3]; first compound 4 µM,1.1
same,relative viability,[4]; first compound 0.04 µM,0.522
same,relative viability,[4]; first compound 1.265 µM,0.477
same,relative viability,[4]; first compound 4 µM,0.661
same,relative viability,[5]; first compound 0.04 µM,0.461
same,relative viability,[5]; first compound 0.4 µM,0.298
same,relative viability,[5]; first compound 1.265 µM,0.243
same,relative viability,[5]; first compound 4 µM,0.271
